{
  "source": "ChEMBL document CHEMBL4385622",
  "about": "“Discovery of velpatasvir (GS-5816): A potent pan-genotypic HCV NS5A inhibitor in the single-tablet regimens Vosevi® and Epclusa®” (Bioorg Med Chem Lett, 2019)",
  "key": {"[1]": {"assay": "Clearance in dog at 0.25 mg/kg, iv", "assay_type": "ADME, organism-based, Canis lupus familiaris", "conditions": "in vivo"}, "[2]": {"assay": "Clearance in monkey at 0.5 mg/kg, iv", "assay_type": "ADME, organism-based, Macaca mulatta", "conditions": "rhesus monkey, in vivo"}, "[3]": {"assay": "Fraction absorbed in dog", "assay_type": "ADME, Canis lupus familiaris", "conditions": "in vivo, read-out: Fabs"}, "[4]": {"assay": "Fraction absorbed in cynomolgus monkey", "assay_type": "ADME, Macaca fascicularis", "conditions": "in vivo, read-out: Fabs"}, "[5]": {"assay": "Fraction absorbed in rat", "assay_type": "ADME", "conditions": "in vivo, read-out: Fabs"}, "[6]": {"assay": "Unbound drug level in rat plasma", "assay_type": "ADME, cell-free"}, "[7]": {"assay": "Unbound drug level in dog plasma", "assay_type": "ADME, cell-free, Canis lupus familiaris"}, "[8]": {"assay": "Unbound drug level in monkey plasma", "assay_type": "ADME, cell-free, Macaca mulatta", "conditions": "rhesus monkey"}, "[9]": {"assay": "Unbound drug level in human plasma", "assay_type": "ADME, cell-free"}, "[10]": {"assay": "Clearance in rat at 2 mg/kg, iv", "assay_type": "ADME, organism-based", "conditions": "in vivo"}, "[11]": {"assay": "Volume of distribution at steady state in rat at 2 mg/kg, iv", "assay_type": "ADME, organism-based", "conditions": "in vivo, read-out: Vdss"}, "[12]": {"assay": "Volume of distribution at steady state in dog at 0.25 mg/kg, iv", "assay_type": "ADME, organism-based, Canis lupus familiaris", "conditions": "in vivo, read-out: Vdss"}, "[13]": {"assay": "Volume of distribution at steady state in monkey at 0.5 mg/kg, iv", "assay_type": "ADME, organism-based, Macaca mulatta", "conditions": "rhesus monkey, in vivo, read-out: Vdss"}, "[14]": {"assay": "Half life in rat at 2 mg/kg, iv", "assay_type": "ADME, organism-based", "conditions": "in vivo"}, "[15]": {"assay": "Half life in dog at 0.25 mg/kg, iv", "assay_type": "ADME, organism-based, Canis lupus familiaris", "conditions": "in vivo"}, "[16]": {"assay": "Half life in monkey at 0.5 mg/kg, iv", "assay_type": "ADME, organism-based, Macaca mulatta", "conditions": "rhesus monkey, in vivo"}, "[17]": {"assay": "Half life in human at 100 mg, po", "assay_type": "ADME", "conditions": "in vivo"}, "[18]": {"assay": "Oral bioavailability in rat at 2 mg/kg", "assay_type": "ADME, organism-based", "conditions": "in vivo"}, "[19]": {"assay": "Oral bioavailability in dog at 0.5 mg/kg", "assay_type": "ADME, organism-based, Canis lupus familiaris", "conditions": "in vivo"}, "[20]": {"assay": "Oral bioavailability in monkey at 1 mg/kg", "assay_type": "ADME, organism-based, Macaca mulatta", "conditions": "rhesus monkey, in vivo"}, "[21]": {"assay": "Oral bioavailability in human at 100 mg", "assay_type": "ADME, organism-based", "conditions": "in vivo"}, "[22]": {"assay": "Cytotoxicity against human HuH7 cells infected with HCV genotype 1a H77 assessed as reduction in cell viability incubated for 5 days by CellTiter-Glo luminescent assay", "assay_type": "cell-based, Huh-7"}, "[23]": {"assay": "Cytotoxicity against human HepG2 cells infected with HCV genotype 1a H77 assessed as reduction in cell viability incubated for 5 days by CellTiter-Glo luminescent assay", "assay_type": "cell-based"}, "[24]": {"assay": "Cytotoxicity against human PC3 cells infected with HCV genotype 1a H77 assessed as reduction in cell viability incubated for 5 days by CellTiter-Glo luminescent assay", "assay_type": "cell-based, PC-3"}, "[25]": {"assay": "Cytotoxicity against human MT4 cells infected with HCV genotype 1a H77 assessed as reduction in cell viability incubated for 5 days by CellTiter-Glo luminescent assay", "assay_type": "cell-based"}, "[26]": {"assay": "Cytotoxicity against human MRC5 cells infected with HCV genotype 1a H77 assessed as reduction in cell viability incubated for 5 days by CellTiter-Glo luminescent assay", "assay_type": "cell-based"}, "[27]": {"assay": "Cytotoxicity against human HuH7 cells infected with HCV genotype 1b Con-1 assessed as reduction in cell viability incubated for 5 days by CellTiter-Glo luminescent assay", "assay_type": "cell-based, Huh-7"}, "[28]": {"assay": "Cytotoxicity against human HepG2 cells infected with HCV genotype 1b Con-1 assessed as reduction in cell viability incubated for 5 days by CellTiter-Glo luminescent assay", "assay_type": "cell-based"}, "[29]": {"assay": "Cytotoxicity against human PC3 cells infected with HCV genotype 1b Con-1 assessed as reduction in cell viability incubated for 5 days by CellTiter-Glo luminescent assay", "assay_type": "cell-based, PC-3"}, "[30]": {"assay": "Cytotoxicity against human MT4 cells infected with HCV genotype 1b Con-1 assessed as reduction in cell viability incubated for 5 days by CellTiter-Glo luminescent assay", "assay_type": "cell-based"}, "[31]": {"assay": "Cytotoxicity against human MRC5 cells infected with HCV genotype 1b Con-1 assessed as reduction in cell viability incubated for 5 days by CellTiter-Glo luminescent assay", "assay_type": "cell-based"}, "[32]": {"assay": "Selectivity index, ratio of CC50 for human Huh7 cells infected with HCV genotype 1a H77 to EC50 for NS5A in HCV genotype 1a H77 infected in human HuH7 replicon cells", "assay_type": "toxicity, cell-based", "conditions": "read-out: Ratio CC50/EC50"}, "[33]": {"assay": "Selectivity index, ratio of CC50 for human HepG2 cells infected with HCV genotype 1a H77 to EC50 for NS5A in HCV genotype 1a H77 infected in human HepG2 replicon cells", "assay_type": "toxicity, cell-based", "conditions": "read-out: Ratio CC50/EC50"}, "[34]": {"assay": "Selectivity index, ratio of CC50 for human PC3 cells infected with HCV genotype 1a H77 to EC50 for NS5A in HCV genotype 1a H77 infected in human PC3 replicon cells", "assay_type": "toxicity, cell-based", "conditions": "read-out: Ratio CC50/EC50"}, "[35]": {"assay": "Selectivity index, ratio of CC50 for human MT4 cells infected with HCV genotype 1a H77 to EC50 for NS5A in HCV genotype 1a H77 infected in human MT4 replicon cells", "assay_type": "toxicity, cell-based", "conditions": "read-out: Ratio CC50/EC50"}, "[36]": {"assay": "Selectivity index, ratio of CC50 for human MRC5 cells infected with HCV genotype 1a H77 to EC50 for NS5A in HCV genotype 1a H77 infected in human MRC5 replicon cells", "assay_type": "toxicity, cell-based", "conditions": "read-out: Ratio CC50/EC50"}},
  "data": [
    {"compound": "COC[C@H]1C[C@@H](c2ncc(-c3ccc4c(c3)COc3cc5c(ccc6nc([C@@H]7CC[C@H](C)N7C(=O)[C@@H](NC(=O)OC)C(C)C)[nH]c65)cc3-4)[nH]2)N(C(=O)[C@H](NC(=O)OC)c2ccccc2)C1", "note": "[VELPATASVIR]", "values": [
      {"measurement": "clearance", "setting": "[1]", "value": 0.25, "unit": "L/h/kg"},
      {"measurement": "clearance", "setting": "[2]", "value": 0.3, "unit": "L/h/kg"},
      {"measurement": "Fa", "setting": "[3]", "value": 29, "unit": "%"},
      {"measurement": "Fa", "setting": "[4]", "value": 37, "unit": "%"},
      {"measurement": "Fa", "setting": "[5]", "value": 36, "unit": "%"},
      {"measurement": "Fu", "setting": "[6]", "value": 0.2, "unit": "%"},
      {"measurement": "Fu", "setting": "[7]", "value": 0.2, "unit": "%"},
      {"measurement": "Fu", "setting": "[8]", "value": 0.4, "unit": "%"},
      {"measurement": "Fu", "setting": "[9]", "value": 0.3, "unit": "%"},
      {"measurement": "clearance", "setting": "[10]", "value": 0.94, "unit": "L/h/kg"},
      {"measurement": "Vd", "setting": "[11]", "value": 1.61, "unit": "L/kg"},
      {"measurement": "Vd", "setting": "[12]", "value": 1.43, "unit": "L/kg"},
      {"measurement": "Vd", "setting": "[13]", "value": 1.6, "unit": "L/kg"},
      {"measurement": "half-life", "setting": "[14]", "value": 2.25, "unit": "h"},
      {"measurement": "half-life", "setting": "[15]", "value": 5.2, "unit": "h"},
      {"measurement": "half-life", "setting": "[16]", "value": 5.03, "unit": "h"},
      {"measurement": "half-life", "setting": "[17]", "value": 15.7, "unit": "h"},
      {"measurement": "bioavailability", "setting": "[18]", "value": 28, "unit": "%"},
      {"measurement": "bioavailability", "setting": "[19]", "value": 25, "unit": "%"},
      {"measurement": "bioavailability", "setting": "[20]", "value": 30, "unit": "%"},
      {"measurement": "bioavailability", "setting": "[21]", "value": 50, "unit": "%"},
      {"measurement": "CC50 at 120 h", "setting": "[22]", "value": "> 44.4", "unit": "µM"},
      {"measurement": "CC50 at 120 h", "setting": "[23]", "value": "> 44.4", "unit": "µM"},
      {"measurement": "CC50 at 120 h", "setting": "[24]", "value": "> 44.4", "unit": "µM"},
      {"measurement": "CC50 at 120 h", "setting": "[25]", "value": "> 44.4", "unit": "µM"},
      {"measurement": "CC50 at 120 h", "setting": "[26]", "value": "> 44.4", "unit": "µM"},
      {"measurement": "CC50 at 120 h", "setting": "[27]", "value": "> 44.4", "unit": "µM"},
      {"measurement": "CC50 at 120 h", "setting": "[28]", "value": "> 44.4", "unit": "µM"},
      {"measurement": "CC50 at 120 h", "setting": "[29]", "value": "> 44.4", "unit": "µM"},
      {"measurement": "CC50 at 120 h", "setting": "[30]", "value": "> 44.4", "unit": "µM"},
      {"measurement": "CC50 at 120 h", "setting": "[31]", "value": "> 44.4", "unit": "µM"},
      {"measurement": "selectivity ratio", "setting": "[32]", "value": "> 4.9e+06"},
      {"measurement": "selectivity ratio", "setting": "[33]", "value": "> 4.9e+06"},
      {"measurement": "selectivity ratio", "setting": "[34]", "value": "> 4.9e+06"},
      {"measurement": "selectivity ratio", "setting": "[35]", "value": "> 4.9e+06"},
      {"measurement": "selectivity ratio", "setting": "[36]", "value": "> 4.9e+06"}
    ]}
  ]
}
